Results published in patent publication US4882359A, “Azacycloalkane derivatives, absorption promoters containing the derivatives as the effective ingredient and external preparations containing the absorption promoters” (priority 1986, dated 1989).
Where two headings read alike, the source gives them in different places.

How the values were obtained:
[1] = Percutaneous absorption of pindolol in rats, serum concentration by HPLC; format: in vivo, Wistar-strain male rats; details: relative to Control (Vehicle) = 1.0 of the same series in Table 5
Experimental: There were provided groups each consisting of four Wistar-strain male rats each weighing 200 to 250 g and having their dorsal skin hair shorn with an electric shaver.
Each of the test solutions (pindolol-containing preparations) was applied to the shorn dorsal skin of test rats of one of the groups in an amount of 150 μl/2.5×2.5 cm^2 and then sealed up. Three hours after the application of the test solution, the blood of the test rats was collected and measured for serum concentration of pindolol by HPLC.
For comparison, the above procedure was followed except that there was used a control solution which was the same as said test solution except for non-use of any compounds of this invention, and also followed using a comparative test solution which was the same as the test solution except for the substitution of a comparative compound for the compound of this invention.

[2] = Skin penetration of pindolol from test solution, diffusion cell method; format: in vitro ADME, female hairless mice
glucose level in blood [3] = experiment: Percutaneous absorption of glibenclamide: glucose level in blood of glucose-loaded rats; format: in vivo, Wistar-strain male rats
Experimental: There were prepared control and test solutions having the following respective formulations (Table 8): […]
In the tests, there were used groups each consisting of four Wistar-strain male rats which weighed about 200 to 250 g and abstained from food for 24 hours.
Each of the control solutions A and B and the test solution indicated in the above Table 8 was applied to the dorsal skins, shorn by an electric clipper or shaver, of the rats of one group in an amount of 175 μl/2.5×2.5 cm^2 and then sealed up. Three hours after sealing up, 1.5 ml of 20% glucose was subcutaneously injected into said rats. Two hours after the glucose injection, the blood of the rats was collected and measured for glucose level in blood.
For comparison, the above procedure was followed except that azone was substituted for the compound of Example 12 in the test solution.
For further comparison, the blood of rats of one group which had been subjected only to 24 hours' abstinence from food (this group being hereinafter referred to as "normal group"), was measured for glucose level in blood. The rat groups to which the control solution A, the control solution B and the test solution were applied, are hereinafter referred to as "control group A", "control group B" and "test group", respectively.

[4] = Skin penetration of 5-FU from test solution, diffusion cell method; format: in vitro ADME, female hairless mice
[5] = Skin penetration of various drugs from test solution, diffusion cell method; format: in vitro ADME, female hairless mice
glucose level in blood [6] = experiment: Rectal absorption of insulin from suppository: glucose level in blood of rabbits; format: in vivo, male rabbits; details: insulin suppository 0.3 g/kg rectal, 3% promoter where used
Experimental: There were prepared the following suppositories for use in normal, control and test groups, respectively, each group consisting of five male rabbits weighing 2.5 to 3.5 kg each.
The three suppositories were into the rectums of the rabbit groups in an amount of 0.3 g suppository/kg, respectively. Thereafter, blood was collected from the rabbits through their ear vein three times with the lapse of time to measure the three collected blood samples for glucose level in blood by a glucose oxidase method. […] The results are indicated in terms of a change in glucose level in blood with respect to the glucose level in blood prior to the administration of the suppositories.

[7] = Rectal absorption of antibiotics from suppositories, serum concentration by HPLC; format: in vivo, male rabbits; details: relative to Control (Vehicle) = 1.0, equals AUC ratio
Experimental: There was prepared the following suppositories of antibiotics for use in control and test groups, respectively, each group consisting of five male rabbits weighing 2.5 to 3.5 kg each.

[8] = Rectal absorption of indomethacin and 5-FU from suppositories; format: in vivo, rabbits
Experimental: Each of male rabbits was fasted for 24 hrs prior to the following Experiment. The two suppositories were into the rectums of the rabbit groups in an amount of 0.3 g suppository/kg, respectively. Thereafter, blood was collected from the rabbits through their ear vein to measure the collected blood samples for the serum concentration of antibiotic by HPLC.
There was prepared test suppositories having the following formulations: […]
The same procedure of Example 151 was followed except that the above suppositories were used and that 3 or 4 rabbits were used in each group.

[9] = system: dorsal skin of Japanese-native rabbits; experiment: Primary skin irritation test (Draize's method); format: in vivo; parameters: key to Average irritation score, 24 hours / Average irritation score, 48 hours / Average irritation score, 72 hours: Draize points: 0-2 mild, 2-6 moderate, 6-8 severe irritation
Experimental: As one of tests on the compounds of this invention for their topical toxicity, a primary skin irritation test was made on skins using rabbits as the subjects. More particularly, an adhesive plaster for use in batch tests, to which 100 μl of a 3% test solution of each of the compounds of Examples 12, 37, 57 and 73 of this invention in 100 ml of polyethylene glycol 300 had dropwise been applied, was applied to the hair-shorn dorsal skin of three Japanese-native rabbits weighing 2.5 to 3.0 kg each and then sealed up on the dorsal skin for 24 hours. The rabbits were evaluated three times for their dorsal skin irritative reaction 24, 48 and 72 hours after removal of the plaster by using a method in accordance with the Draize's method.
The results are as shown in Table 18 in which the overall evaluation is represented by the following equation. [formula] and is graded into mild irritation (0-2 points), moderate irritation (2-6 points) and severe irritation (6-8 points).

[10] = relative to Control (Vehicle) = 1.0; equals ratio of 48 hrs values
Experimental: There were investigated the effects of the compound of this invention on the percutaneous penetration of ketoprofen using the dorsal skin of female hairless mice (each 9 weeks old) by a diffusion cell method which comprised adding 0.5 ml of said test solution to the donor side and measuring the amount of ketoprofen permeated into the receptor layer by performance liquid chromatography (HPLC). For comparison, the above procedure was followed except that a control solution containing no compound of this invention was substituted for said test solution containing the compound of this invention.

[11] = hydrophylic ointment, relative to Control (Vehicle) = 1.0
[12] = gel ointment, relative to Control (Vehicle) = 1.0
[13] = acryl tape, relative to Control (Vehicle) = 1.0
[14] = relative to Control (Vehicle) = 1.0
Experimental: There were investigated the effects of the compound of this invention on the percutneous penetration of phenol red which is difficult to be penetrated using the dorsal skin of female hairless mice (each 9 weeks old) by a diffusion cell method which comprised adding 0.5 ml of a sodium chloride injection containing 2 mM of phenol red to the donor side and measuring the amount of phenol red permeated into the receptor layer by high-pace optimal densitometric meter (559 nm).

in vivo = details: rat

For `CCCCCCCCCCSCCN1CCCC1=O` [Example 12], the “Activity (serum concentration of pindolol)” value [1] was 47.8, the “Cumulative amount of pindolol permeated, 24 hrs later” value [2] was 50.0 ± 7.0 µM and the “Cumulative amount of pindolol permeated, 48 hrs later” value [2] was 127.6 ± 4.8 µM. The “Activity (pindolol permeation)” value ([2]; test solution, relative to Control (Vehicle) = 1.0) was 34.5, the Glucose level (glucose level in blood [3]; glibenclamide 0.6 wt.% solution on dorsal skin, two hours after s.c. 20% glucose) was 115 ± 4 mg/dL and the Inhibition rate (glucose level in blood [3]; glucose level, relative to control group A and normal group) was 46.4%. For the same molecule, the “Cumulative amount of 5-FU permeated, 24 hrs later” value ([4]; 3.0 wt.% test compound, 5-FU 1.8 wt.% in ethanol/water, 24 hrs) was 465 ± 83 µM, the “Cumulative amount of 5-FU permeated, 48 hrs later” value ([4]; 3.0 wt.% test compound, 5-FU 1.8 wt.% in ethanol/water, 48 hrs) was 963 ± 22 µM and the “Activity (5-FU permeation)” value ([4]; relative to Control (Vehicle) = 1.0) was 4.7. The “Activity (skin penetration)” value ([5]; drug: 1,25-Dihydroxy VD3) was 5.4, the “Activity (skin penetration)” value ([5]; drug: 8-Bromocyclic AMP) was 50.3 and the “Activity (skin penetration)” value ([5]; drug: Chlordiazepoxide) was 4.8. The “Activity (skin penetration)” value ([5]; drug: Clonidine) was 6.3, the “Activity (skin penetration)” value ([5]; drug: Clotrimazole) was 3.2 and the “Activity (skin penetration)” value ([5]; drug: Diazepam) was 3.5. For the same molecule, the “Activity (skin penetration)” value ([5]; drug: Erythromycin) was 4.5, the “Activity (skin penetration)” value ([5]; drug: Estradiol) was 2.0 and the “Activity (skin penetration)” value ([5]; drug: Ketotifen) was 3.8. For the same molecule, the “Activity (skin penetration)” value ([5]; drug: Lidocain) was 10.3, the “Activity (skin penetration)” value ([5]; drug: Nicotinic acid) was 15.3 and the “Activity (skin penetration)” value ([5]; drug: Nifedipine) was 6.2. For the same molecule, the “Activity (skin penetration)” value ([5]; drug: Prostaglandin E2) was 4.8, the “Activity (skin penetration)” value ([5]; drug: Scopolamin) was 2.4 and the “Activity (skin penetration)” value ([5]; drug: Testosterone) was 2.5. For the same molecule, the “Activity (skin penetration)” value ([5]; drug: Triamcinolone) was 5.5, the “Activity (skin penetration)” value ([5]; drug: p-Aminobenzoic acid) was 12.3 and the “Changes of glucose level to the initial, 0.5 hr” value (glucose level in blood [6]; 0.5 hr) was -30 mg/dL. For the same molecule, the “Changes of glucose level to the initial, 1 hr” value (glucose level in blood [6]; 1 hr) was -29 mg/dL, the “Changes of glucose level to the initial, 3 hrs” value (glucose level in blood [6]; 3 hrs) was -22 mg/dL and the “Activity (rectal absorption)” value ([7]; ABPC suppository) was 6.3. For the same molecule, the “Activity (rectal absorption)” value ([7]; CET suppository) was 3.0, the “Activity (rectal absorption)” value ([8]; drug: 5-FU) was 4.8 and the “Activity (rectal absorption)” value ([8]; drug: Indomethacin) was 2.5. For the same molecule, the “Average irritation score, 24 hours” value ([9]; 3% solution in polyethylene glycol 300, 24 hours after removal of plaster) was 0.3 ± 0.3, the “Average irritation score, 48 hours” value ([9]; 3% solution in polyethylene glycol 300, 48 hours after removal of plaster) was 0.3 ± 0.3 and the “Average irritation score, 72 hours” value ([9]; 3% solution in polyethylene glycol 300, 72 hours after removal of plaster) was 0.5 ± 0.5. For the same molecule, the “Overall evaluation (skin irritation)” value ([9]; graded from irritation scores at 24, 48 and 72 hours) was “Mild (mild irritation (0-2 points))”, the “Activity (ketoprofen permeation)” value [10] was 3.3 and the “Activity (indomethacin permeation)” value [11] was 3.2. For the same molecule, the “Activity (indomethacin permeation)” value [12] was 18.4, the “Activity (pindolol permeation)” value [13] was 3.9 and the “Activity (phenol red permeation)” value [14] was 86.5. The LD50 at 168 h (in vivo; po) was greater than 5000 mg/kg and the LD50 at 168 h (in vivo; sc) was greater than 5000 mg/kg.
